Source: patent publication US8003684B2, “Crystal form and pharmaceutical compositions of (+)-R-zileuton” (Cornerstone Therapeutics, Inc., priority 2006, dated 2011)

Test: Moisture sorption/desorption analysis
Assay type: physicochemical
Text: The profiles show the change in weight of a sample containing Form I as the relative humidity (herein referred to as “RH”) of the environment is changed between 5% and 95% at a 10% RH interval. […] The vapor sorption/desorption profiles indicate that Form I is non-hygroscopic. Moisture sorption/desorption data were collected on a VTI SGA-100 Vapor Sorption Analyzer, calibrated using sodium chloride and polyvinylpyrrolidone as calibration standards. Sorption and desorption data were collected over a range of 5% to 95% relative humidity (RH) at 10% RH interval under a nitrogen purge. Samples were not dried prior to analysis. Equilibrium criteria used for analysis were less than 0.0100% weight change in 5 minutes, with a maximum equilibration time of 3 hours if the weight criterion was not met. Data were not corrected for the initial moisture content of the sample.

weight change in adsorption profile (RH below 40%, FIG. 3): essentially no weight change | hygroscopicity from vapor sorption/desorption profiles (RH between 5% and 95%): non-hygroscopic | weight gain in adsorption profile (steady gain from RH 40% until RH reaches 95%, 10% RH interval, FIG. 3): approximately 2%
SMILES: C[C@H](c1cc2ccccc2s1)N(O)C(N)=O [Form I, (+)-R-zileuton]
